The subject of test [1] is BCG + LPS induced liver injury. As to the kind of experiment: BCG+LPS induced liver injury in mice. The test is classed as in vivo, Kunming mice. To be noted: 5.85 mg/kg gastric infusion, 7 days.
Test [2] concerns acetaminophen induced liver injury. As to the kind of experiment: Acetaminophen induced liver injury in mice. The test is classed as in vivo. Particulars: 5.85 mg/kg gastric infusion, 10 days. The protocol:
Ethyl 11-deoxy-18α-glycyrrhetinate: provided by traditional Chinese medicine laboratory, R&D center of Jiangsu Chia Tai Tianqing Pharmaceutical Co., Ltd. Bifendate pills: produced by Beijing Union Pharmaceutical factory. Daily dosage of human is 45 mg, used as the positive control medicine. Acetaminophen: produced by Jinzhou biochemical pharmaceutical factory. All medicines were prepared to desired concentrations with physiological saline according to the requirement of experiment. AST, ALT Kit: product of Nanjing Jiancheng bioengineering research institute.
60 mice were randomly divided into 6 groups: the normal control group, Bifendate group (positive medicine group), model control group, various doses of ethyl 11-deoxy-18α-glycyrrhetinate groups (240, 120, 60 mg/kg). After the animals were adaptively fed for 3 days, animals in each group were administered the medicines by gastric infusion for 10 days (one time/day). Animals in the normal control group and model group were administered 0.2 ml/mouse of physiological saline. 6 hours after the last administration, animals in each group, except the animals in normal control group, were intraperitoneally injected 400 mg kg-1 acetaminophen. After 12 hours, blood was taken by orbital bleeding. Activities of alanine aminotransferase (ALT), aspartate aminotransferase (AST) were measured. And T test of groups was performed, see table 7;

For test [3], the system named is TAA induced acute liver injury. Briefly: TAA induced acute liver injury mouse model. The test is classed as in vivo, ICR male mice. Also on record: Average grade of hepatocyte necrosis: scale not given here. To be noted: 240 mg/kg IG. The procedure:
50 ICR male mice were randomly divided into 5 groups of 10 mice in each group: the model group, diammonium glycyrrhizinate group (240 mg/kg), high dose of ethyl 11-deoxy-18α-glycyrrhetinate group (240 mg/kg), middle dose of ethyl 11-deoxy-18α-glycyrrhetinate group (120 mg/kg), and low dose of ethyl 11-deoxy-18α-glycyrrhetinate group (60 mg/kg). The mice in model group were administered equal amount of 0.5% CMC-Na by IG.

Test [4] concerns D-Galn induced acute liver injury. Briefly: D-Galn induced acute liver injury mouse model. Particulars: Table 2 experiment, 7 days. The test is classed as in vivo, ICR male mice. The protocol: 1. Comparison of therapeutic effects of ethyl 11-deoxy-18α-glycyrrhetinate and compound glycyrrhizin injection on ICR male mouse models of the D-Galn induced acute liver injury
Methods: 60 ICR male mice were randomly divided into 6 groups of 10 mice in each group: the model group, compound glycyrrhizin injection group (60 mg/kg), compound glycyrrhizin gastric infusion group (240 mg /kg), high dose of ethyl 11-deoxy-18α-glycyrrhetinate group (240 mg/kg), middle dose of ethyl 11-deoxy-18α-glycyrrhetinate group (120 mg/kg), low dose of ethyl 11-deoxy-18α-glycyrrhetinate group (60 mg/kg). […] The mice in model group were administered equal amount of 0.5% CMC-Na by gastric infusion.

Test [5] concerns carrageenan-induced rat paw edema. Briefly: Carrageenan-induced rat paw swelling. The test is classed as in vivo, male SD rats. To be noted: 10 mg/kg gastric infusion. The procedure: Rat paw edema was induced by injecting carrageenan, and we observed the swelling to evaluate the anti-inflammatory effect. Wherein:
• Animals: male SD rats, 150-180 g; • Inflammatory Agent: carrageenan; • Test Medicine: ethyl 11-deoxy-18α-glycyrrhetinate was dissolved in 1% CMC-Na to get the desired concentration; • Positive Control Medicine: indomethacin was dissolved in 1% CMC-Na to get the desired concentration;
50 rats were randomly divided into 5 groups of 10 rats in each group: the model group, positive control group (administering indomethacin 10 mg/kg), various doses of the test medicine groups (30, 60, 120 mg/kg). The animals in each group were administered continuously for 3 days. Before the last administration, the volumes of the left hind feet of the rats were measured by micropipette method. Then the animals were administered the test medicines or CMC-Na by gastric infusion. 1 hour later, freshly prepared carrageenan was injected subcutaneously into left hind feet of the rats according to the dosage of 0.05 ml/paw by using a 0.25 ml syringe and NO. 4 needle. The volume of left hind feet of the rats was measured by the method mentioned above at time points of 1, 3, 4, 5 and 7 hours after administration, each point 2 times, and the average values were calculated. The difference of these values between before and after inflammation was called swelling degree.
Data was presented as x±s. T test of the average of two samples was used to compare the experimental data of each group. P<0.05 or P<0.01 was regarded to be statistically significant.

The structures appear in SMILES notation. Marks after values point to notes of the source that are not given here.

`COC(=O)c1cc(OC)c2c(c1-c1c(C(=O)OC)cc(OC)c3c1OCO3)OCO2` [Bifendate, reference compound]: in test [1], the ALT is 110.5 ± 11.9 U/L and the AST was 152.3 ± 41.6 U/L. Further, in test [2], the ALT amounted to 134.6 ± 12.9 U/L and the AST is recorded as 162.3 ± 31.7 U/L.

As to `CC1(C)[C@@H](O[C@H]2O[C@H](C(=O)O)[C@@H](O)[C@H](O)[C@H]2O[C@@H]2O[C@H](C(=O)O)[C@@H](O)[C@H](O)[C@H]2O)CC[C@]2(C)[C@H]3C(=O)C=C4[C@@H]5C[C@@](C)(C(=O)O)CC[C@]5(C)CC[C@@]4(C)[C@]3(C)CC[C@@H]12.N.N` [Diammonium glycyrrhizinate, diammonium glycyrrhizinate, reference compound], in test [3], the ALT turned out to be 1568 ± 721 U/ml, the “ALT Inhibition %” value turned out to be 31%, the AST is given as 1039 ± 623 U/ml and the “AST Inhibition %” value is given as 40%. In test [3], the “Average grade of hepatocyte necrosis” value is 1.3**. Also, in test [3] (N=10), the “Grade of hepatocyte necrosis 0 (number of mice)” value is 0, the “Grade of hepatocyte necrosis 1 (number of mice)” value worked out at 7, the “Grade of hepatocyte necrosis 2 (number of mice)” value is listed as 3 and the “Grade of hepatocyte necrosis 3 (number of mice)” value was 0. Also, the “Grade of hepatocyte necrosis 4 (number of mice)” value in test [3] (N=10) is recorded as 0. For the same molecule, in test [4] (60 mg/kg IP), the ALT was found to be 383 ± 393 U/ml, the “ALT Inhibition %” value came out at 80%, the AST came out at 308 ± 389 U/ml and the “AST Inhibition %” value was 73%. In addition, in test [4] (240 mg/kg IG), the ALT is reported as 993 ± 479 U/ml, the “ALT Inhibition %” value amounted to 49%, the AST is given as 566 ± 291 U/ml and the “AST Inhibition %” value turned out to be 50%.

With `COc1ccc2c(c1)c(CC(=O)O)c(C)n2C(=O)c1ccc(Cl)cc1` [Indomethacin, indomethacin, reference compound], the “Swelling degree of the feet after inflammation” value in test [5] (1 h) turned out to be 0.13 ± 0.05 mL; in test [5] (3 h), 0.17 ± 0.07 mL; in test [5] (4 h) it was 0.24 ± 0.09 mL; in test [5] (5 h), 0.22 ± 0.06 mL; in test [5] (7 h), 0.16 ± 0.05 mL.

Source of the values: patent US20120172438A1, “GLYCYRRHETINIC ACID ESTER DERIVATIVE SYNTHESIS METHOD AND DEOXOGLYCYRRHETINIC ACID ESTER COMPOUND” (priority 2009, published 2012).
